Key:
[1] = system: pulmonary adenocarcinoma; conditions: IRESSA alone, reported up to now; cited from earlier work
[2] = system: CD3−CD161+ NK cell; assay: NK cell measurement by flow cytometry; type: in vivo, human; conditions: Case 2; per date of visit
From the text: Likewise, the term “(CD3−CD161+)” refers to examination of cells with negative CD3 and positive CD161. This method is useful for NK cell measurement.
(§1) In the examples, using blood obtained from cancer patients, blood cells were discriminated as positive or negative of the cell surface antigens CD3, CD161 and CD8, with each cell proportion measured according to a conventional method by two-color assay using flow cytometry. At this time, for respective monoclonal antibodies to CD3, CD161 and CD8, those manufactured by Coulter or Becton Dickinson were used.

[3] = system: Th1 cytokines (TNFα, IFNγ, IL-12)
Method: In this case, a measurement kit purchased from R&D Systems was used. In practice, to each well of a 96-well microplate were added 50 μl of a measuring diluent, Assay Diluent RD1F, and 200 μl of a standard solution or samples prepared by the method for preparing the aforementioned samples for cytokine measurement, after which the samples were allowed to stand still at room temperature for 2 hours for reaction. Thereafter, 200 μl of horseradish peroxidase-labeled anti-IL12 antibody was added to the solution of each well, and the wells were then allowed to stand still at room temperature for 2 hours. After removing the reaction solution from each well and washing three times, 200 μl of chromophore solution was added to each well, the wells were allowed to stand still at room temperature for 20 minutes, and 50 μl of enzyme reaction stopping solution was then added to each well. The absorbance of each sample was measured at 450 nm with Emax (from Wako Pure Chemical Industries, Ltd.) employing 550 nm as a control. The amount of IL-12 is represented in pg/ml.
Measurement of IFNγ was conducted by enzyme immunoassay (EIA) using the IFNγ EASIA kit available from BioSource Europe SA. […]

[4] = system: VEGF; assay: Serum VEGF by ELISA; type: in vivo, human; conditions: per date of visit
Method: (Measurement of vascular endothelial growth factor/VEGF, basic fibroblast growth factor/bFGF and neovascularization inhibitor endostatin/endostatin)
Serum concentrations were measured using commercially available kits for each enzyme linked immunosorbent assay (ELISA) ([…] Human VEGF, […] Human bFGF, […] Human Endostatin, from Cytimmune Sciences Inc.).

[5] = system: IL-10; assay: IL-10 measurement; type: in vivo, human; conditions: Case 2; per date of visit
Method: (§2) After washing, 10% fetal bovine serum (FBS)-added RPMI-1640 culture medium is added for preparation to provide a cell count of 1×10^6. Phytohemagglutinin (manufactured by Difco) is added to 200 μl of the cell suspension thus obtained to provide a concentration of 20 μg/ml, and then the mixture is cultured using a 96 well microplate under 5% CO2 at 37° C. for 24 hours.

[6] = system: Th1/Th2 helper T-cells (CD4); assay: Th1/Th2 cell ratio by flow cytometry; type: in vivo, human; conditions: Case 2; per date of visit
Method: The Th1/Th2 cell ratio was determined according to an ordinary method by helper T(Th)-cell line three-color analytical assay using flow cytometry.
First, blood collected from cancer patients was treated for 4 hours at 37° C. with phorbol 12-myristate 13 acetate and ionomycin to stimulate cells in the blood to produce cytokines. Next, Breferdin A was added to stop the production reaction, cell surface marker CD4 was stained using an anti-CD4 antibody CD4-PC5 (Beckman Coulter), the cells were fixed and then subjected to hemolysis using FACS Lysing Solution (Nippon Becton Dickinson Co., Ltd.). Thereafter, cells were permeabilized with FACS Permeabilizing Solution (Nippon Becton Dickinson Co., Ltd.), and intracellular cytokines were stained using anti-IFNγ antibody/anti-IL-4 antibody (Fastimmune IFNγ FITC/IL-4 PE, from Nippon Becton Dickinson Co., Ltd.), and then measured and analysed with a flow cytometer (FACS Calibur, Becton Dickinson).

[7] = system: TNFα; assay: TNFα measurement by ELISA; type: in vivo, human; conditions: Case 2; per date of visit
Method: After washing, 10% fetal bovine serum (FBS)-added RPMI-1640 culture medium was added for preparation to provide a cell count of 1×10^6/ml. Phytohemagglutinin (30 μg/ml) (manufactured by Difco) was added to 200 μl of the cell suspension thus obtained, and then the mixture was cultured using a 96 well microplate under 5% CO2 at 37° C. for 24 hours.

[8] = system: non-small-cell lung cancer, prostatic cancer and the like; conditions: cited from earlier work
[9] = system: prostatic cancer; assay: Efficacy judgment on patients; type: in vivo, human; conditions: Case 2; IRESSA 250 mg/day combined with NITC, after one month
Method: (§3) Further, similarly to Example 1, an IL-12 inducer, shark cartilage (Seishin Enterprise Co., Ltd.), and a saccharide (NK, NKT activator) having an α1,3 structure were administered to the patients in each case according to the respective recommended prescriptions.

[10] = system: tumor markers; assay: Tumor markers in clinical testing; type: in vivo, human
From the text: A commercially available product was used for each of the markers used in the clinical testing, and measurement values were shown in accordance with the respective recommended methods. All abbreviations shown are in accordance with common methods of presentation.

[11] = system: IFNγ; assay: IFNγ measurement by EIA; type: in vivo, human; conditions: Case 2; per date of visit
Method: as §2

[12] = system: pulmonary adenocarcinoma; assay: Efficacy judgment on patients (CR, PR, LNC, SNC, PD)
Method: as §3

[13] = system: IL-12; assay: IL-12 measurement by ELISA; type: in vivo, human; conditions: Case 2; per date of visit
Method: Phytohemagglutinin (manufactured by Difco) is added to 200 μl of the cell suspension thus obtained to provide a concentration of 20 μg/ml, and then the mixture is cultured using a 96 well microplate under 5% CO2 at 37° C. for 24 hours.

[14] = system: CD3+CD161+ NKT cell; assay: NKT cell measurement by flow cytometry; type: in vivo, human; conditions: Case 2; per date of visit
Method: Measurement of NKR-P1-bearing NKT cell can be conducted by measuring cell surface antigens (CD3 and CD161) existing specifically on the NKT cell surface. More specifically, peripheral blood lymphocytes are examined with respect to cells with positive CD3 and positive CD161 (CD3+CD161+). That is, CD3 and CD161, NKT cell surface antigens, are measured by the two-color assay through flow cytometry using monoclonal antibody. Here, the term “NKT cell activation” refers to as the CD3+CD161+ NKT cell proportion in lymphocyte being 10% or more and preferably 16% or more. The term “NKT cell activating capability” denotes a capability of increasing the NKT cell proportion to 10% or more and preferably 16% or more, or a capability of further augmenting the NKT cell proportion from a proportion before administration of a certain substance.
as §1

[15] = system: CD8+ perforin+ cells; assay: CD8+ perforin production cell measurement; type: in vivo, human; conditions: Case 2; per date of visit
From the text: Further, the term “CD8+” denotes examination of cells with positive CD8. This method is useful for CTL activation measurement.
as §1
Two among CD3, CD161 and CD8, cell surface antigens, and perforin are measured with respect to peripheral blood lymphocyte according to a conventional method by three-color assay using flow cytometry. More specifically, a fixative is added to sampled blood, thus fixing cells. After addition of membrane permeating solution, anti-perforin antibody (manufactured by Pharmingen) is added for reaction. Further, PRE-Cy5 labeled second antibody (manufactured by DAKO) is added for reaction, followed by addition of anti-CD3-PE (Coulter 6604627) antibody and anti-CD161-FITC (B-D) antibody for reaction, after which measurement is conducted by flow cytometry. In the drawings and tables, the abbreviation “PER” is used.

[16] = Case 1, IRESSA added to NITC, after one and a half months
[17] = Case 3, IRESSA with NITC, approximately 1 month
[18] = IRESSA alone, reported clinical results

## COc1cc2ncnc(Nc3ccc(F)c(Cl)c3)c2cc1OCCCN1CCOCC1 [IRESSA]
[1]
  proportion of effective cases: around 20%
[2]
  CD3− CD161+ (11%): 12.3%
[3]; [16]
  TNFα, IFNγ, and IL-12: activated at levels exceeding standard values
[3]; [17]
  induced production of TNFα, IFNγ, and IL-12: increased
[4]; Case 1
  VEGF: 320 pg/mL
[4]; Case 2
  VEGF: 342 pg/mL
[5]
  IL-10: 154 pg/mL
[6]
  Ratio of TH1/TH2 (CD4) (7 or more): 2.7
[7]
  TNF α (1000 pg/ml): 3420 pg/mL
[8]; IRESSA alone, extremely rare cases
  period to reach complete remission: ≥ 4 months
[8]; [18]
  CR (complete remission) found: almost no CR
  PR (partial remission) cases: 10 to 20%
[8]; treatment by IRESSA
  cessation of proliferation (NC): about 50%
  reduction (PR) in cancer cells: about 20%
[9]
  multiple bone metastasis: complete remission
[10]; [16]
  various tumor markers: normalized
[10]; Case 1, per date of visit
  CA15-3 (30 U/ml): 26 U/ml
  CA19-9 (37 U/ml): 32 U/ml
  CEA (5.0 ng/ml): 4.5 ng/mL
  NCC-ST-439 (7.0 U/ml): 6.7 U/ml
  SPAN-1 (30 U/ml): 16 U/ml
  Sielyl LEX-1 (38 U/ml): 36 U/ml
[10]; Case 2, IRESSA combined with NITC, after one month, normalized
  PSA value: 4.0 ng/mL
[10]; Case 2, per date of visit
  1CTP (4.5 ng/ml): 2.5 ng/mL
  CA19-9 (37 U/ml): 27 U/ml
  Gamma-seminoprotein (4.0 ng/ml): 4.0 ng/mL
  PA (RIA) (4.0 ng/ml): 4.0 ng/mL
  PAP (EIA) (3.0 ng/ml): 1.4 ng/mL
[10]; Case 3, IRESSA with NITC, approximately 1 month, from 256 ng/ml prior to the treatment
  tumor marker CEA: 172 ng/mL
[10]; Case 3, IRESSA with NITC, approximately 1 month, from 480 U/ml prior to the treatment
  SLX-1: 140 U/ml
[11]
  IFN γ (10 IU/ml): 46.2 IU/ml
[12]; Case 1, IRESSA 250 mg per day added to NITC, after one and a half months
  carcinomatous pleural fluid and primary lung cancer: completely disappeared
[12]; [16]
  bone metastasis to right hip joint, cervical vertebrae and thoracic vertebrae: cured
[12]; [17]
  miliary lung metastasis: almost disappeared
  multiple costal metastasis: disappeared
  primary focus in the right lung: reduced by half
[13]
  IL-12 (7.8 pg/ml): 72.4 pg/mL
[14]
  CD3+ CD161+ (16%): 17.0%
[15]
  CD8+ PER+ (14%): 7.2%
